Data: patent US20240307424A1, “COMPOSITION CAPABLE OF PROMOTING HAIR GROWTH, DRUG CAPABLE OF PROMOTING HAIR GROWTH, AND APPLICATION THEREOF” (GUANGXI XINHAI PHARMACEUTICAL TECHNOLOGY CO., LTD., priority 2022, published 2024)

Legend:
[1] = system: hair follicles in the skin tissue of the hair removal area on the back of mice; experiment: Number of hair follicles in skin tissue of the hair removal area (HE staining); format: in vivo, KM mice; settings: twice a day, 2 weeks, compared with the model group
Description: After the mice are sacrificed, the skin tissue of the back is fixed, is embedded with paraffin to obtain a paraffin-embedded section, is subjected to HE staining, and is counted the number of hair follicles to evaluate the effect of hair growth promotion.

[2] = system: hair removal area on the back of mice; experiment: Hair growth on the back of mice after hair removal (photos, hair growth speed score); format: in vivo, KM mice; settings: twice a day, 2 weeks; for hair growth speed (score 0-3) of the hair removal area: high dose 2 mg/mL, compared with the model group
Description: The experimental animals are purchased from National Institutes for Food and Drug Control with a production license No. of SCXK2017 (Jing)-0005, KM mice, male, 18-20 g. SPF grade.
Except for a normal control group, the back of all the mice in the other groups are subjected to hair removal.
The experimental animals are purchased from National Institutes for Food and Drug Control with the production license No. of SCXK2017 (Jing)-0005, KM mice, male, 18-20 g, spf grade.
Except for the normal control group, the back of all the mice in the other groups are subjected to hair removal.

[3] = Weight of mice after administration for 2 weeks
Description: Animal grouping: a blank group, a model group, a Vaseline group, a pulchinenoside B4-low dose group, a pulchinenoside B4-medium dose group, a pulchinenoside B4-high dose group, a positive drug of minoxidil liniment group, 10 mice per group, pulchinenoside B4 and minoxidil liniment in each group are dissolved with Vaseline. The mice in the Vaseline group are administered Vaseline, the low dose, and medium dose and high dose of pulchinenoside B4 are 0.5, 1, and 2 mg/mL, respectively. The mice are administered twice a day, after 2 weeks of continuous administration, the skin tissue of a hair removal area on the back of the mice in each group is taken, is fixed and is subjected to HE staining, and the number of hair follicles is counted under a microscope.
Animal grouping: a blank group, a model group, a Vaseline group, a pulchinenoside B5-low dose group, a pulchinenoside B5-medium dose group, a pulchinenoside B5-high dose group, a positive drug of minoxidil liniment group, 10 mice per group, pulchinenoside B5 and minoxidil liniment in each group are dissolved with Vaseline. […] The mice are administered twice a day, after 2 weeks of continuous administration, the skin tissue of a hair removal area on the back of the mice in each group is obtained, is fixed and is subjected to HE staining, and the number of hair follicles is counted under a microscope.

[4] = medium dose 1 mg/mL in Vaseline

| Structure (SMILES) | number of hair follicles in the skin tissue of the hair removal area ([1]; high dose 2 mg/mL) | number of hair follicles in the skin tissue of the hair removal area ([1]; low dose 0.5 mg/mL) | number of hair follicles in the skin tissue of the hair removal area ([1]; medium dose 1 mg/mL) | hair growth in the hair removal area on the back of mice (photos) ([2]; high dose 2 mg/mL in Vaseline) | hair growth speed (score 0-3) of the hair removal area [2] | hair growth in the hair removal area on the back of mice (photos) ([2]; low dose 0.5 mg/mL in Vaseline) | hair growth in the hair removal area on the back of mice (photos) [2, 4] | effect on the weight of mice [3] |
| --- | --- | --- | --- | --- | --- | --- | --- | --- |
| C=C(C)[C@@H]1CCC2(C(=O)OC3OC(COC4O[C@H](CO)C(O[C@@H]5O[C@@H](C)[C@H](O)[C@@H](O)[C@H]5O)[C@H](O)[C@H]4O)[C@@H](O)[C@H](O)[C@H]3O)CC[C@]3(C)[C@H](CC[C@@H]4[C@@]5(C)CC[C@H](O[C@@H]6OC[C@H](O)[C@H](O)[C@H]6O[C@@H]6O[C@@H](C)[C@H](O)[C@@H](O)[C@H]6O)[C@@](C)(CO)C5CC[C@]43C)[C@@H]12 (stereo partly drawn) [pulchinenoside B4] | significantly increase | significantly increase | significantly increase | can promote hair growth | significantly increased | can promote hair growth | can promote hair growth |  |
| C[C@@H]1O[C@@H](OC2[C@@H](CO)OC(OCC3OC(OC(=O)C45CCC(C)(C)C[C@@H]4[C@H]4CC[C@@H]6[C@@]7(C)CC[C@H](O[C@@H]8OC[C@H](O)[C@H](O)[C@H]8O[C@@H]8O[C@@H](C)[C@H](O)[C@@H](O)[C@H]8O)C(C)(CO)[C@@H]7CC[C@@]6(C)[C@]4(C)CC5)[C@H](O)[C@@H](O)[C@@H]3O)[C@H](O)[C@H]2O)[C@H](O)[C@H](O)[C@H]1O (stereo partly drawn) [pulchinenoside B5] | significantly increase | significantly increase | significantly increase | can promote hair growth | significantly increased | can promote hair growth | can promote hair growth | no significant effect |
